In patent US11472811B2, “Pyrazolotriazolopyrimidine derivatives as A2A receptor antagonist” (BEIGENE, LTD., priority 2018, dated 2022):

Molecular target: human A2A receptor (A2AR) (Homo sapiens (Human), UniProt P29274)
Test: Luciferase reporter assay (HEK293-A2AR-luc2p/CRE/Hygro cells)
Assay type: cell-based
Conditions: 3 nM CGS21680, 5 h incubation
Outline: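 Antagonism was scored as inhibition of CRE-luciferase signal driven by 3 nM CGS21680 (=100%) during a 5 h treatment with compound at 0.1–10000 nM. The line was HEK293 stably carrying human A2AR and luc2P/CRE, preincubated 18 h in 1% FBS containing 1 U/mL ADA. IC50 came from the dose-response curve.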

Chain of human A2A receptor (A2AR) (P29274 whole entry): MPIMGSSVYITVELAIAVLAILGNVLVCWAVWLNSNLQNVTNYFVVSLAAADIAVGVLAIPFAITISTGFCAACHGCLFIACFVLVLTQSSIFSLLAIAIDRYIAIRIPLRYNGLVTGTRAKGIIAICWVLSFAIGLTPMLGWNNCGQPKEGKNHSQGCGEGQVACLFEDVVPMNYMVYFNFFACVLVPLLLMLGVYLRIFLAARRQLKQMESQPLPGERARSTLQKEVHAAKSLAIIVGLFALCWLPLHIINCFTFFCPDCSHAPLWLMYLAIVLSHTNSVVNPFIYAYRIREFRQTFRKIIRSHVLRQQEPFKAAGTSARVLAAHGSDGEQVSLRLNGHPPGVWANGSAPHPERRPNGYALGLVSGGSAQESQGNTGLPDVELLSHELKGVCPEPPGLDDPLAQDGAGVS

`CC(C(=O)NCC1CCOCC1)(c1ccccc1)n1ncc2c1nc(N)n1nc(-c3ccco3)nc21` (centres unmarked) [Example 97, 2-(5-amino-2-(furan-2-yl)-7H-pyrazolo[4,3-e][1,2,4]triazolo[1,5-c]pyrimidin-7-yl)-2-phenyl-N-((tetrahydro-2H-pyran-4-yl)methyl)propenamide] was tested. Which IC50 did it give?
Its IC50 is 10.4 nM.

For `CCC(C(=O)NCC1(O)COC1)(c1ccccc1)n1ncc2c1nc(N)n1nc(-c3ccco3)nc21` (centres unmarked) [Example 103, 2-(5-amino-2-(furan-2-yl)-7H-pyrazolo[4,3-e][1,2,4]triazolo[1,5-c]pyrimidin-7-yl)-N-((3-hydroxyoxetan-3-yl)methyl)-2-phenylbutanamide], which IC50 is on record?
Its IC50 is 6.1 nM.

With `CC(C(=O)Nc1ccccc1)(c1ccccc1)n1ncc2c1nc(N)n1nc(-c3ccco3)nc21` (centres unmarked) [Example 34, 2-(5-amino-2-(furan-2-yl)-7H-pyrazolo[4,3-e][1,2,4]triazolo[1,5-c]pyrimidin-7-yl)-N,2-diphenylpropanamide] as the compound, how does the IC50 read?
Its IC50 is 9.5 nM.

Which IC50 does the source give for `CC(C(=O)N[C@H]1CC[C@@](C)(O)CC1)(c1ccccc1)n1ncc2c1nc(N)n1nc(-c3ccco3)nc21` (stereo partly drawn) [Example 33, 2-(5-amino-2-(furan-2-yl)-7H-pyrazolo[4,3-e][1,2,4]triazolo[1,5-c]pyrimidin-7-yl)-(trans)-N-(4-hydroxy-4-methylcyclohexyl)-2-phenylpropanamide] here?
The IC50 was 8.4 nM.

With `COc1ccnc(CNC(=O)C(C)(c2ccccc2)n2ncc3c2nc(N)n2nc(-c4ccco4)nc32)c1` (centres unmarked) [Example 114, 2-(5-amino-2-(furan-2-yl)-7H-pyrazolo[4,3-e][1,2,4]triazolo[1,5-c]pyrimidin-7-yl)-N-((4-methoxypyridin-2-yl)methyl)-2-phenylpropanamide] as the compound, how does the IC50 read?
Its IC50 is 3.3 nM.

For `CNCCNC(=O)C(C)(c1ccccc1)n1ncc2c1nc(N)n1nc(-c3ccco3)nc21` (centres unmarked) [Example 81, 2-(5-amino-2-(furan-2-yl)-7H-pyrazolo[4,3-e][1,2,4]triazolo[1,5-c]pyrimidin-7-yl)-N-(2-(methylamino)ethyl)-2-phenylpropanamide], which IC50 is on record?
Its IC50 is 120 nM.

For `CC(C(=O)Nc1ccccn1)(c1ccccc1)n1ncc2c1nc(N)n1nc(-c3ccco3)nc21` (centres unmarked) [Example 77, 2-(5-amino-2-(furan-2-yl)-7H-pyrazolo[4,3-e][1,2,4]triazolo[1,5-c]pyrimidin-7-yl)-2-phenyl-N-(pyridin-2-yl)propanamide], which IC50 is on record?
The IC50 was 15.3 nM.

With `C[C@]1(O)CC[C@H](NC(=O)C(c2ccccc2)n2ncc3c2nc(N)n2nc(-c4ccco4)nc32)CC1` (stereo partly drawn) [Example 96, 2-(5-amino-2-(furan-2-yl)-7H-pyrazolo[4,3-e][1,2,4]triazolo[1,5-c]pyrimidin-7-yl)-(cis)-N-(4-hydroxy-4-methylcyclohexyl)-2-phenylacetamide] as the compound, how does the IC50 read?
Its IC50 is 7.5 nM.

For `Cc1ccc(CNC(=O)[C@@](C)(c2ccccc2)n2ncc3c2nc(N)n2nc(-c4ccco4)nc32)nc1` [Example 109B, (R)-2-(5-amino-2-(furan-2-yl)-7H-pyrazolo[4,3-e][1,2,4]triazolo[1,5-c]pyrimidin-7-yl)-N-((5-methylpyridin-2-yl)methyl)-2-phenylpropanamide], which IC50 is on record?
Its IC50 is 0.7 nM.

Which IC50 does the source give for `Cc1ccnc(CNC(=O)C(C)(c2ccccc2)n2ncc3c2nc(N)n2nc(-c4ccco4)nc32)c1` (centres unmarked) [Example 110, 2-(5-amino-2-(furan-2-yl)-7H-pyrazolo[4,3-e][1,2,4]triazolo[1,5-c]pyrimidin-7-yl)-N-((4-methylpyridin-2-yl)methyl)-2-phenylpropanamide] here?
Its IC50 is 2.4 nM.

For `CC1(O)CCC(NC(=O)[C@@](C)(c2ccccc2)n2ncc3c2nc(N)n2nc(-c4ccco4)nc32)CC1` (stereo in doubt) [Example 33B, (R)-2-(5-amino-2-(furan-2-yl)-7H-pyrazolo[4,3-e][1,2,4]triazolo[1,5-c]pyrimidin-7-yl)-(trans)-N-(4-hydroxy-4-methylcyclohexyl)-2-phenylpropanamide], which IC50 is on record?
Its IC50 is 2.3 nM.

With `CC(C(=O)NCc1cc(F)ccn1)(c1ccccc1)n1ncc2c1nc(N)n1nc(-c3ccco3)nc21` (centres unmarked) [Example 118, 2-(5-amino-2-(furan-2-yl)-7H-pyrazolo[4,3-e][1,2,4]triazolo[1,5-c]pyrimidin-7-yl)-N-((4-fluoropyridin-2-yl)methyl)-2-phenylpropanamide] as the compound, how does the IC50 read?
The IC50 was 7.2 nM.

Which IC50 does the source give for `C[C@](C(=O)N[C@H]1COC[C@H]1O)(c1ccccc1)n1ncc2c1nc(N)n1nc(-c3ccco3)nc21` [Example 107B, (R)-2-(5-amino-2-(furan-2-yl)-7H-pyrazolo[4,3-e][1,2,4]triazolo[1,5-c]pyrimidin-7-yl)-N-((3S,4S)-4-hydroxytetrahydrofuran-3-yl)-2-phenylpropanamide] here?
The IC50 was 32.2 nM.

`Cc1ccc(CNC(=O)C(C)(c2ccccc2)n2ncc3c2nc(N)n2nc(-c4ccco4)nc32)nc1` (centres unmarked) [Example 109, 2-(5-amino-2-(furan-2-yl)-7H-pyrazolo[4,3-e][1,2,4]triazolo[1,5-c]pyrimidin-7-yl)-N-((5-methylpyridin-2-yl)methyl)-2-phenylpropanamide] was tested. Which IC50 did it give?
The IC50 was 1 nM.

`Cc1cccc(CNC(=O)C(c2ccccc2)n2ncc3c2nc(N)n2nc(-c4ccco4)nc32)c1` (centres unmarked) [Example 23, 2-(5-amino-2-(furan-2-yl)-7H-pyrazolo[4,3-e][1,2,4]triazolo[1,5-c]pyrimidin-7-yl)-N-(3-methylbenzyl)-2-phenylacetamide] was tested. Which IC50 did it give?
Its IC50 is 1.9 nM.

`Nc1nc2c(cnn2C(C(=O)NCc2ccccc2OC(F)(F)F)c2ccccc2)c2nc(-c3ccco3)nn12` (centres unmarked) [Example 8, 2-(5-amino-2-(furan-2-yl)-7H-pyrazolo[4,3-e][1,2,4]triazolo[1,5-c]pyrimidin-7-yl)-2-phenyl-N-(2-(trifluoromethoxy)benzyl)acetamide] was tested. Which IC50 did it give?
Its IC50 is 2 nM.

How did the IC50 turn out when `COc1ccc(CNC(=O)[C@@](C)(c2ccccc2)n2ncc3c2nc(N)n2nc(-c4ccco4)nc32)nc1` [Example 113B, (R)-2-(5-amino-2-(furan-2-yl)-7H-pyrazolo[4,3-e][1,2,4]triazolo[1,5-c]pyrimidin-7-yl)-N-((5-methoxypyridin-2-yl)methyl)-2-phenylpropanamide] was run?
The IC50 was 0.9 nM.

How did the IC50 turn out when `Nc1nc2c(cnn2C(C(=O)NC2CCOCC2)c2ccccc2)c2nc(-c3ccco3)nn12` (centres unmarked) [Example 11, 2-(5-amino-2-(furan-2-yl)-7H-pyrazolo[4,3-e][1,2,4]triazolo[1,5-c]pyrimidin-7-yl)-2-phenyl-N-(tetrahydro-2H-pyran-4-yl)acetamide] was run?
Its IC50 is 36 nM.

For `COc1ccccc1C(C)(C(=O)N[C@H]1CC[C@](C)(O)CC1)n1ncc2c1nc(N)n1nc(-c3ccco3)nc21` (stereo partly drawn) [Example 140, 2-(5-amino-2-(furan-2-yl)-7H-pyrazolo[4,3-e][1,2,4]triazolo[1,5-c]pyrimidin-7-yl)-N-((cis)-4-hydroxy-4-methylcyclohexyl)-2-(2-methoxyphenyl)propanamide], which IC50 is on record?
Its IC50 is 1.2 nM.

How did the IC50 turn out when `CC(C(=O)NCCc1ccccc1)(c1ccccc1)n1ncc2c1nc(N)n1nc(-c3ccco3)nc21` (centres unmarked) [Example 30, 2-(5-amino-2-(furan-2-yl)-7H-pyrazolo[4,3-e][1,2,4]triazolo[1,5-c]pyrimidin-7-yl)-N-phenethyl-2-phenylpropanamide] was run?
Its IC50 is 10.8 nM.

`CC(C(=O)N[C@@H]1CCCOC1)(c1ccccc1)n1ncc2c1nc(N)n1nc(-c3ccco3)nc21` (stereo partly drawn) [Example 60, 2-(5-amino-2-(furan-2-yl)-7H-pyrazolo[4,3-e][1,2,4]triazolo[1,5-c]pyrimidin-7-yl)-2-phenyl-N—((R)-tetrahydro-2H-pyran-3-yl)propanamide] was tested. Which IC50 did it give?
Its IC50 is 8.2 nM.

How did the IC50 turn out when `COc1ccccc1C(C)(C(=O)NCC1(O)COC1)n1ncc2c1nc(N)n1nc(-c3ccco3)nc21` (centres unmarked) [Example 70, 2-(5-amino-2-(furan-2-yl)-7H-pyrazolo[4,3-e][1,2,4]triazolo[1,5-c]pyrimidin-7-yl)-N-((3-hydroxyoxetan-3-yl)methyl)-2-(2-methoxyphenyl)propanamide] was run?
Its IC50 is 1.7 nM.

For `CC(C(=O)NC[C@@H]1CCOC1)(c1ccccc1)n1ncc2c1nc(N)n1nc(-c3ccco3)nc21` (stereo partly drawn) [Example 53, 2-(5-amino-2-(furan-2-yl)-7H-pyrazolo[4,3-e][1,2,4]triazolo[1,5-c]pyrimidin-7-yl)-2-phenyl-N—(((S)-tetrahydrofuran-3-yl)methyl)propanamide], which IC50 is on record?
The IC50 was 12.5 nM.

How did the IC50 turn out when `C[C@@H](NC(=O)C(c1ccccc1)n1ncc2c1nc(N)n1nc(-c3ccco3)nc21)c1ccccc1` (stereo partly drawn) [Example 10, 2-(5-amino-2-(furan-2-yl)-7H-pyrazolo[4,3-e][1,2,4]triazolo[1,5-c]pyrimidin-7-yl)-2-phenyl-N—((R)-1-phenylethyl)acetamide] was run?
The IC50 was 16.5 nM.

`CC(C(=O)Nc1cccnc1)(c1ccccc1)n1ncc2c1nc(N)n1nc(-c3ccco3)nc21` (centres unmarked) [Example 64, 2-(5-amino-2-(furan-2-yl)-7H-pyrazolo[4,3-e][1,2,4]triazolo[1,5-c]pyrimidin-7-yl)-2-phenyl-N-(pyridin-3-yl)propanamide] was tested. Which IC50 did it give?
The IC50 was 35.1 nM.

With `CC(C(=O)NCc1ccc2c(c1)OCO2)(c1ccccc1)n1ncc2c1nc(N)n1nc(-c3ccco3)nc21` (centres unmarked) [Example 42, 2-(5-amino-2-(furan-2-yl)-7H-pyrazolo[4,3-e][1,2,4]triazolo[1,5-c]pyrimidin-7-yl)-N-(benzo[d][1,3]dioxol-5-ylmethyl)-2-phenylpropanamide] as the compound, how does the IC50 read?
The IC50 was 3.9 nM.

With `Nc1nc2c(cnn2C(C(=O)NCc2ccccc2F)c2ccccc2)c2nc(-c3ccco3)nn12` (centres unmarked) [Example 7, 2-(5-amino-2-(furan-2-yl)-7H-pyrazolo[4,3-e][1,2,4]triazolo[1,5-c]pyrimidin-7-yl)-N-(2-fluorobenzyl)-2-phenylacetamide] as the compound, how does the IC50 read?
Its IC50 is 1.5 nM.

How did the IC50 turn out when `Cc1cccc(CNC(=O)[C@@](C)(c2ccccc2)n2ncc3c2nc(N)n2nc(-c4ccco4)nc32)n1` [Example 108B, (R)-2-(5-amino-2-(furan-2-yl)-7H-pyrazolo[4,3-e][1,2,4]triazolo[1,5-c]pyrimidin-7-yl)-N-((6-methylpyridin-2-yl)methyl)-2-phenylpropanamide] was run?
Its IC50 is 2.5 nM.

`CC(C(=O)NC1CCCCC1)(c1ccccc1)n1ncc2c1nc(N)n1nc(-c3ccco3)nc21` (centres unmarked) [Example 43, 2-(5-amino-2-(furan-2-yl)-7H-pyrazolo[4,3-e][1,2,4]triazolo[1,5-c]pyrimidin-7-yl)-N-cyclohexyl-2-phenylpropanamide] was tested. Which IC50 did it give?
Its IC50 is 4.1 nM.
